The text below walks through data of DBAASP.

In brackets after ≈: the same amount, converted by molar mass. Some results are limits rather than exact numbers.

Test systems include Escherichia coli O157:H7; Escherichia coli O111; Escherichia coli MG1655.
Test in all cases: ≥ marks a high value that may be exact or a test limit, other limits are often not marked, values filed in µg/mL are converted to µM
Assay [1] deals with Salmonella enterica subsp. enterica serovar Typhimurium LT2.
In assay [2] the test system is Staphylococcus aureus NCTC 8325-4.
For assay [3], the system named is Staphylococcus aureus RN4220.
In assay [4] the test system is Escherichia coli NCIMB 11843.
The test system of assay [5] is Cronobacter sakazakii DPC 6440.
Assay [6] concerns Staphylococcus aureus NCTC 7428.
Assay [7] deals with Staphylococcus aureus Newman.
The test system of assay [8] is Listeria monocytogenes NCTC 11994.
Assay [9] concerns Staphylococcus aureus SA113.
Assay [10] concerns Pseudomonas putida ATCC 49128.
Assay [11] has as its system Salmonella enterica subsp. enterica serovar Typhimurium DT104.
In assay [12] the test system is Cronobacter sakazakii ATCC BAA-894.
The subject of assay [13] is Klebsiella pneumoniae NCIMB 13218.
In assay [14] the test system is Cronobacter sakazakii DSM 4485.
The subject of assay [15] is Pseudomonas fluorescens NCIMB 9046.
For assay [16], the system named is Staphylococcus aureus RF122.
Assay [17] relates to Cronobacter muytjensii ATCC 51329.
In assay [18] the test system is Pseudomonas aeruginosa PA7.
Assay [19] relates to Staphylococcus aureus NCTC 8325.
Assay [20] relates to Pseudomonas aeruginosa PAO1.
In assay [21] the test system is Staphylococcus epidermidis T6/19.
Assay [22] relates to Acinetobacter baumannii NM124.
Assay [23] relates to Escherichia coli ATCC 25726.
Assay [24] has as its system Staphylococcus epidermidis T37/8.
Assay [25] relates to Stenotrophomonas maltophilia B6/2.
Assay [26] deals with Acinetobacter baumannii NM8.
Assay [27] has as its system Acinetobacter baumannii NM75.
The test system of assay [28] is Klebsiella pneumoniae ATCC 700603.
For assay [29], the system named is Staphylococcus aureus ATCC 25923.
Assay [30] relates to Staphylococcus aureus 145/08.
For assay [31], the system named is Staphylococcus epidermidis RP62A/1.
For assay [32], the system named is Stenotrophomonas maltophilia B32/1.
Assay [33] relates to Enterococcus faecalis ATCC 29212.
Assay [34] relates to Stenotrophomonas maltophilia B32/4.
Assay [35] has as its system Pseudomonas aeruginosa ATCC 27853.
Assay [36] relates to Stenotrophomonas maltophilia B5/5.
The test system of assay [37] is Candida albicans ATCC 90028.
Assay [38] relates to Staphylococcus epidermidis RP62A.
In assay [39] the test system is Stenotrophomonas maltophilia U8908.
Assay [40] has as its system Acinetobacter baumannii NM35.
Assay [41] relates to Acinetobacter baumannii NM109.

Take `CC[C@H](C)[C@H](N)C(=O)N[C@@H](CCCCN)C(=O)N[C@@H](Cc1cnc[nH]1)C(=O)N[C@@H](CCC(N)=O)C(=O)NCC(=O)N[C@@H](CC(C)C)C(=O)N1CCC[C@H]1C(=O)N[C@@H](CCC(N)=O)C(=O)N[C@@H](CCC(=O)O)C(=O)O` [IKHQGLPQE]: the MIC (as a rule, the lowest concentration found to suppress growth) in assay [1] is ≥ 1250 µM; in assay [2] it was ≥ 1250 µM; in assay [3], ≥ 1250 µM; in assay [4] it was ≥ 1250 µM; in assay [5], ≥ 625 µM; in assay [6], ≥ 1910 µM. For the same compound, the MIC in assay [7] is ≥ 1250 µM; in assay [8] it was ≥ 953 µM; in assay [9], ≥ 1250 µM; in [10], ≥ 953 µM; in assay [11], ≥ 1910 µM; in assay [12], ≥ 625 µM. Moreover, the MIC is ≥ 1910 µM against Escherichia coli O157:H7; ≥ 1910 µM with Escherichia coli O111; ≥ 1250 µM in [13]; ≥ 625 µM in [14]; ≥ 1250 µM in [15]; ≥ 1250 µM in assay [16]. For the same compound, in assay [17], the MIC was ≥ 625 µM.
On to `CC[C@H](C)[C@H](NC(=O)[C@@H](N)CCCCN)C(=O)N1CCC[C@H]1C(=O)N1CCC[C@H]1C(=O)N[C@H](C(=O)N[C@H](C(=O)N[C@@H](CCCCN)C(=O)N[C@@H](CC(=O)O)C(=O)N[C@H](C(=O)N[C@@H](CC(C)C)C(=O)N[C@@H](CCCCN)C(=O)N[C@@H](CCCCN)C(=O)N[C@H](C(=O)N[C@@H](C)C(=O)N[C@@H](CCCCN)C(=O)NCC(=O)N[C@H](C(=O)N[C@@H](CC(C)C)C(=O)N[C@@H](CO)C(=O)N[C@@H](C)C(=O)N[C@H](C(=O)N[C@@H](C)C(=O)NCC(=O)N[C@@H](C)C(=O)N[C@@H](CC(C)C)C(=O)N[C@@H](CO)C(=O)O)C(C)C)C(C)C)C(C)C)[C@@H](C)O)C(C)C)C(C)C` [KIPPVVKDTLKKVAKGVLSAVAGALS], for which the MIC is 16 µM (≈ 41.4 µg/mL) in [18], 2 µM (≈ 5.18 µg/mL) in the assay on Escherichia coli MG1655, ≥ 181 µM in assay [19] and 16 µM (≈ 41.4 µg/mL) in assay [20].
As for `CC[C@H](C)[C@H](NC(=O)[C@H](C)NC(=O)[C@@H](NC(=O)[C@H](C)NC(=O)CNC(=O)[C@H](CCCCN)NC(=O)[C@@H](NC(=O)[C@H](C)NC(=O)CNC(=O)[C@H](CCCCN)NC(=O)[C@H](CC(C)C)NC(=O)[C@@H](NC(=O)[C@H](CCCCN)NC(=O)[C@H](CCCCN)NC(=O)[C@H](CC(C)C)NC(=O)[C@@H](NC(=O)[C@H](CCCCN)NC(=O)[C@H](CCCCN)NC(=O)[C@@H](NC(=O)[C@H](CCCCN)NC(=O)[C@@H]1CCCN1C(=O)[C@H](CO)NC(=O)[C@H](CC(C)C)NC(=O)[C@H](CCCCN)NC(=O)[C@@H](N)CC(C)C)[C@@H](C)O)[C@@H](C)O)C(C)C)[C@@H](C)CC)[C@@H](C)CC)C(=O)N[C@@H](C)C(=O)N[C@@H](CO)C(=O)N[C@@H](CCSC)C(=O)N[C@@H](C)C(=O)O` [LKLSPKTKKTLKKVLKGAIKGAIAIASMA], the MIC in assay [21] stood at 1.25 µM (≈ 3.76 µg/mL); in assay [22], 2.5 µM (≈ 7.52 µg/mL); in assay [23], 2.5 µM (≈ 7.52 µg/mL); in assay [24], 1.25 µM (≈ 3.76 µg/mL); in assay [25], 1.25 µM (≈ 3.76 µg/mL); in assay [26], 2.5 µM (≈ 7.52 µg/mL). For the same compound, the MIC in assay [27] came out at 2.5 µM (≈ 7.52 µg/mL); in assay [28], 5 µM (≈ 15 µg/mL); in assay [29], 2.5 µM (≈ 7.52 µg/mL); in assay [30], 2.5 µM (≈ 7.52 µg/mL); in assay [31], 1.25 µM (≈ 3.76 µg/mL); in [32], 2.5 µM (≈ 7.52 µg/mL). The MIC in [33] was 5 µM (≈ 15 µg/mL); in [34], 1.25 µM (≈ 3.76 µg/mL); in assay [35], 10 µM (≈ 30.1 µg/mL); in [36] it was 2.5 µM (≈ 7.52 µg/mL); in assay [37], ≥ 80 µM; in [38], 1.25 µM (≈ 3.76 µg/mL). The MIC in assay [39] is 2.5 µM (≈ 7.52 µg/mL); in [40], 2.5 µM (≈ 7.52 µg/mL); in assay [41], 5 µM (≈ 15 µg/mL).
